Results taken from patent US6683061B1, “Enzyme catalyzed therapeutic activation” (NewBiotics, Inc., priority 1999, dated 2004).
Read-outs that look alike come from different tables or passages of the source.

Columns and labels:
[1] = test system: HT1080 #12; experiment: Crystal violet cell proliferation inhibition assay; assay type: cell-based; details: crystal violet procedure, Table 7; high TS; read-out: Cytotoxic Activity, TS HT1080 #12
Excerpt: (§1) Numbering in Tables 5 and 6 refer to the structures, shown infra. Results from testing using the alamarBlue assay are shown in Table 5, and results from crystal violet based assays are shown in Table 6. MCF7-TDX was derived from MCF7 breast tumor cells via selection in cell culture in the presence of Tomudex, a direct inhibitor of TS. Such selection often results in high intracellular levels of TS (Freemantle, S. J. et al. (1995)). Similarly, H630R10 is a 5FU (fluoropyrimidine) resistant colon cancer epithelial cell line derived from H630 colon cancer cells. See, Copur, S. et al. (1995). HT1080, #12, is a fibrosarcoma tumor cell line that expresses high levels of TS via a transgene introduced into HT1080 tumor cells. Normal cell lines used in these assays include CCD18co (normal colon epithelium) and Det551 (normal skin).

[2] = test system: CCd18co; experiment: Crystal violet cell proliferation inhibition assay; assay type: cell-based, human
Excerpt: as §1

[3] = test system: normal and tumor cells; experiment: Cell proliferation assays (alamarBlue, crystal violet), results stated in words; assay type: cell-based, human; details: summary of Tables 5-7
Protocol: (§2) Cells growing exponentially were transferred to 384-well flat bottom tissue culture plates. All cell types were plated at a density of 500 cells per well in 25 μL of complete medium (RPMI 1640+10% fetal bovine serum+antibiotics/antimycotics). After 24 hours (day 0), 25 μL of complete medium containing the compounds over the dose range of 10^−3 to 10^−10 M were added in triplicate. Drug exposure time was 120 hours (day 5), after which growth inhibition was assayed. 5 μL of the redox indicator, alamarBlue, was added to each well (10% v/v). After 4 hours incubation at 37° C., fluorescence was monitored at 535 nm excitation and 595 nm emission.
The data in both Tables 5 and 6 indicate that most compounds are active as phosphoramidates and nucleosides. […] Cytotoxicity results with the nucleosides, especially BVdU, NB1020™ (ClVdU) and NB1024™, are surprising since the literature teaches that 5-substituted compounds like BVdU are not efficiently monophosphorylated by human cells unless they express viral thymidine kinase. See, Balzarini, J. et al. (1985) and De Clerq, E. et al. (1997). These authors have proposed that once phosphorylated by the herpesvirus-encoded TK, the 5-substituted nucleotide derivative can bind to the TS enzyme and inactivate it. […] Alternatively, some tumor cells may have an unusually high amount, or form the normal TK enzyme (Suki, S. et al. (1995); and Romain, S. et al. (1995)), leading to a low, but sufficient activation of nucleosides to their corresponding monophosphates.

[4] = test system: MCF7TDX; experiment: Crystal violet cell proliferation inhibition assay; details: read-out: Cytotoxic Activity, MCF7TDX
Protocol: The ability of the test compounds to block proliferation of cells was determined by the crystal violet procedure.
Compounds were dissolved in dimethyl sulfoxide to a concentration of 1M. They were further diluted as necessary into DMEM cell culture medium, and subsequently into the first wells of the 96-well microtiter plate. Each concentration was tested in triplicate on the target cell line. Compound concentrations from 1 μM to 3000 μM were tested. Cells were incubated with compound for 72 hours, the plates were washed, and the cells fixed with methanol and stained with crystal violet as described in Sugarman, B. J. et al. (1985); and Antelman, D. et al. (1995).
The ability of each isolated compound to block cell proliferation was then determined by the crystal violet procedure.
The first two cell lines, TS HT1080 #12 and MCF7TDX express high levels of TS, while the other two, CCD18co and Det551, are normal cells.

[5] = test system: Det551; experiment: Crystal violet cell proliferation inhibition assay; assay type: cell-based, human
Excerpt: as §1

[6] = test system: MCF7TDX; experiment: AlamarBlue cell proliferation assay; assay type: cell-based, human; details: 120 hours drug exposure
Protocol: as §2
as §1, with “Normal cell lines used in these assays include CCD18co (normal colon epithelium) and Det551 (normal skin).” left out

[7] = test system: H630R10; experiment: AlamarBlue cell proliferation assay; assay type: cell-based, human; details: 120 hours drug exposure
Protocol: as §2
as §1, with “Normal cell lines used in these assays include CCD18co (normal colon epithelium) and Det551 (normal skin).” left out

[8] = test system: H630R10; experiment: Amount of nucleoside and monophosphate in cells (HPLC of lysates); assay type: cell-based, human; details: 100 μm BVdU, 2 days treatment
Protocol: (§3) Cells were incubated in complete media with 100 μm BVdU.

[9] = test system: MCF7TDX; experiment: as above; assay type: cell-based, human; details: 100 μm BVdU, 2 days treatment
Protocol: as §3

[10] = test system: MCF7; experiment: as above; assay type: cell-based, human; details: 100 μm BVdU, 2 days treatment
Protocol: as §3

[11] = Crystal violet cell proliferation inhibition assay; assay type: cell-based, human; details: human, crystal violet procedure, Table 7, normal cells
Excerpt: as §1

[12] = crystal violet procedure, Table 7, normal cells, read-out: Cytotoxic Activity, CCD18co
[13] = crystal violet procedure, Table 7, high TS
[14] = crystal violet procedure, Table 7, normal cells, read-out: Cytotoxic Activity, Det551

| Compound | IC50 [1] [µM] | IC50 [2, 12] [µM] | cytotoxic / growth inhibiting activity in words [3] | IC50 [4, 13] [µM] | IC50 [5, 14] [µM] | other results |
| --- | --- | --- | --- | --- | --- | --- |
| O=c1[nH]c(=O)n([C@H]2C[C@H](O)[C@@H](CO)O2)cc1/C=C/C=C\Br (single isomer, unassigned; isomer 1) [NB1024 Isomer 1, 5-(4-Bromo-1E,3Z-butadienyl)-2′-dexoyuridine] | 10.1 | > 300 | significantly greater growth inhibiting activity | 9.8 | – | – |
| O=c1[nH]c(=O)n([C@H]2C[C@H](O)[C@@H](CO)O2)cc1/C=C/C=C/Br (single isomer, unassigned; isomer 2) [NB1024 Isomer 2, 5-(4-Bromo-1E,3E-butadienyl)-2′-dexoyuridine] | > 300 | – | – | > 300 | > 300 | – |
| 5-(2-Bromovinyl)-2′-Deoxyuridine Phenyl N-Methoxy-L-alaninyl Phosphoramidate [NB1011] | 4.3 | 461 | – | 4.2 | 263 | IC50 [6]: 2 µM; IC50 ([2]; crystal violet, 72 hours, normal colon epithelium, read-out: IC50 CCD18co): 408 µM; IC50 ([5]; crystal violet, 72 hours, normal skin, read-out: IC50 Det551): 356 µM |
| COC(=O)C(C)NP(=O)(OCC1OC(n2ccc(=O)[nH]c2=O)CC1O)Oc1ccccc1 (centres unmarked) [NB1025] | – | – | active | – | – | IC50 [7]: 192 µM |
| O=c1ccn(C2CC(O)C(CO)O2)c(=O)[nH]1 (centres unmarked) [NB1026] | – | – | little detectable activity | – | – | – |
| O=c1[nH]c(=O)n([C@H]2C[C@H](O)[C@@H](CO)O2)cc1/C=C/Br [BVDU, (E)-5-(2-Bromovinyl)-2′-deoxyuridine] | – | – | – | – | – | BVdU level in cell lysate [8]: 26.3 HPLC peak area at 300 nm; BvdUMP/(BVdUMP + BVdU) × 100 [8]: <4; BVdU level in cell lysate [9]: 39.0 HPLC peak area at 300 nm; BvdUMP/(BVdUMP + BVdU) × 100 [9]: 21.2; BVdU level in cell lysate [10]: 90.8 HPLC peak area at 300 nm; BvdUMP/(BVdUMP + BVdU) × 100 [10]: 44.2; IC50 at 72 h ([11]; CCD18co cells (normal colon epithelium), read-out: Cytotoxic Activity, CCD18co): > 1000 µM; IC50 at 72 h ([11]; Det551 cells (normal skin), read-out: Cytotoxic Activity, Det551): > 1000 µM; IC50 ([4]; Homo sapiens): < 0.8 µM |
